Experimental data taken from patent US20160000883A1, “COMBINATION OF ACYLATED GLUCAGON ANALOGUES WITH INSULIN ANALOGUES” (ZEALAND PHARMA A/S, priority 2011, published 2016).
Numbered stars: 1 amine (or outer) side, 2 acyl side, 3 side chain; on linkers, the order of the positions; unused ones are H or OH. Square brackets hold non-standard residues; d marks the D form. Side chains are listed from the residue outwards. * marks the point of attachment. γGlu = O=C(O)[C@H](CCC(=O)[*:2])N[*:1]; Palmitoyl = CCCCCCCCCCCCCCCC(=O)*; Aib = CC(C)(N)C(=O)O

What was measured:
[1] = system: db/db (BKS.Cg-m+/+Lepr^db/J) female mice; experiment: 21-day s.c. treatment of db/db mice: body weight, food and water intake; format: in vivo; conditions: 21 days, bi-daily s.c., Lantus 3 U, Levemir 6 U, Compound X 10 nmol/kg, vs. vehicle (FIG. 1)
Source text: Eighty (80) db/db (BKS.Cg-m+/+Lepr^db/J) female mice aged 7 weeks were obtained from Charles River, US. The mice were acclimatized in their new environment and allowed free access to normal chow (Altromin 1324, Brogaarden A/S, Gentofte, Denmark) and domestic quality tap water added citric acid to pH ˜3.6, except as indicated. The mice were group-housed with 3-4 mice per cage in a light-, temperature-, and humidity-controlled room (12-hour light: 12-hour dark cycle, with lights on at 06.00 AM to 06.00 PM hour; 24° C.; 50% relative humidity).
Prior to treatment, in weeks 1-3, a tail-blood sample for the determination of blood glucose was obtained on non-fasted animals to determine diabetic state and to identify outliers, which were excluded. The inclusion criteria of BG>16 mM glucose was applied.
Stratification of the animals was based on HbA1c levels (primary) and BW as measured at baseline (day −4). Thus, on day −3, the 66 mice were selected based on the pre-screen and baseline measurements into 6 study groups of 11 mice (3-4 mice/cage).
(§1) All mice were mock treated for at 3 days (BID, SC, 100 μl vehicle) to acclimatize the animals to handling and injections. Dosing (day 0, mice at age 12 weeks as in pilot study) started in the afternoon on that day, and the mice were treated twice daily with 2 SC injections according to Table 1 for a total of 21 days (4 injections per day). Thus, last day of dosing was day 21 in the morning. The daily injections took place between 7:00 and 8:00 and between 14:00 and 15:00 with fresh solutions prepared in the morning (only Compound X). […]
Dosing solutions of Compound X for the weekend were prepared the Friday before. […] Throughout the study (day −2 to day 21) body weights (8W) were recorded daily and used to administer the body weight-corrected doses of substances. Food and water intake (FI, WI) was measured every day (day −3 to day 21) as cage averages.
In Vivo: female db/db mice aged 10-11 weeks were treated for 21 days with bi-daily s.c. injections. […] Fasting blood glucose (BG) was measured before and after 21 days of treatment.

[2] = system: db/db (BKS.Cg-m+/+Lepr^db/J) female mice; experiment: 21-day s.c. treatment of db/db mice: fasting blood glucose (delta-BG); format: in vivo; conditions: fasted female db/db mice, over 21 days of bi-daily s.c. treatment; Lantus 3 U, Levemir 6 U, Compound X 10 nmol/kg; average +/- SEM (FIG. 4)
Procedure: as §1, with “X). Insulin was kept in the refrigerator.” for “X).”
On day 21 (before termination) in 8 h fasted mice a blood sample (350 μl) was taken, and BG, HbA1c, and p-insulin were measured as described above. […]
The whole blood glucose level was analyzed on tail-blood samples by the immobilized glucose oxidase method (Elite Auto analyser, Bayer, Denmark) following the manufacturer's protocol. Blood samples (sample size 30 μl) were analyzed for HbA1c using the Cobas c111 analyzer (Roche Diagnostics, Mannheim, Germany) in single determinations by Department of Molecular Pharmacology. Plasma (sample size 5 μl) and insulin content was measured using an insulin alpha-LISA assay in triplicate by Department of Molecular Pharmacology. A measure of peptide exposure in plasma (sample size 100 μl) will be determined by the Department of Bioanalysis and Pharmacokinetics. […]

H-H-Aib-QGTFTSDYSKYLDS-K(Hexadecanoyl-isoGlu)-AAHDFVEWLLSA-NH2 (H-H[Aib]QGTFTSDYSKYLDSK([γGlu-Palmitoyl])AAHDFVEWLLSA-NH2; SMILES CCCCCCCCCCCCCCCC(=O)N[C@@H](CCC(=O)NCCCC[C@H](NC(=O)[C@H](CO)NC(=O)[C@H](CC(=O)O)NC(=O)[C@H](CC(C)C)NC(=O)[C@H](Cc1ccc(O)cc1)NC(=O)[C@H](CCCCN)NC(=O)[C@H](CO)NC(=O)[C@H](Cc1ccc(O)cc1)NC(=O)[C@H](CC(=O)O)NC(=O)[C@H](CO)NC(=O)[C@@H](NC(=O)[C@H](Cc1ccccc1)NC(=O)[C@@H](NC(=O)CNC(=O)[C@H](CCC(N)=O)NC(=O)C(C)(C)NC(=O)[C@@H](N)Cc1c[nH]cn1)[C@@H](C)O)[C@@H](C)O)C(=O)N[C@@H](C)C(=O)N[C@@H](C)C(=O)N[C@@H](Cc1c[nH]cn1)C(=O)N[C@@H](CC(=O)O)C(=O)N[C@@H](Cc1ccccc1)C(=O)N[C@H](C(=O)N[C@@H](CCC(=O)O)C(=O)N[C@@H](Cc1c[nH]c2ccccc12)C(=O)N[C@@H](CC(C)C)C(=O)N[C@@H](CC(C)C)C(=O)N[C@@H](CO)C(=O)N[C@@H](C)C(N)=O)C(C)C)C(=O)O) [Compound X, acylated glucagon analogue, glucagon-GLP-1 dual agonist]
body weight (BW) change [1]: significant decrease

Insulin detemir [Levemir]
body weight (BW) change [1]: significant increase
delta-BG (delta-Blood Glucose) [2]: -2.1 ± 1.6 mM

Insulin glargine [Lantus]
body weight (BW) change [1]: significant increase
delta-BG (delta-Blood Glucose) [2]: -9.6 ± 1.9 mM
